Reference: a melting point compilation (Tetko et al.; mined from patent text by program, amines drawn as free bases though some values may be those of a salt)

| melting point [°C] | SMILES |
| --- | --- |
| 208 to 209 | O=C(O)Cc1nc(-c2ccc(F)cc2)oc1-c1cccs1 |
| 189 to 191 | CC(=O)Nc1cccc2c1C(=O)C1(NC(C)=O)c3ccc(C(C)C)cc3OC21O (stereo unspecified) |
| 143 to 145 | CC(=O)NCC1CN(c2ccc(S(C)=O)c(F)c2)C(=O)O1 (stereo unspecified) |
| 202 | Cc1nc(-c2ccccc2)nc(N2CCN(c3ccc(O)cc3)CC2)c1C |
| 166 to 168 | CC(=O)OCC(=O)c1cc(O)c(O)c([N+](=O)[O-])c1 |
| 88 to 89 | COC(C)c1ccc(C=C(C)c2ccc3c(c2)C(C)(C)CCC3(C)C)cc1 (stereo unspecified) |
| 126 to 127 | CCCc1c(OCCCCCc2ccc(O)c(O)c2)ccc(C(C)=O)c1O |
| 159 to 162 | CCCCC(CC)COC(=O)C(C#N)=Cc1ccc(C(=O)O)cc1 (stereo unspecified) |
| 93.7 to 95.1 | O=C(Nc1ccc(Cl)cc1)c1ccccc1Cl |
| 164 to 165 | COc1ccc2c(C(=S)N(C)CC(=O)O)cccc2c1C(F)(F)C(F)(F)F |
| 147 | O=C(O)C1CSC(c2ccccc2F)N1 (mixture of isomers) |
| 175 to 178 | CN1C(=O)CC[C@]2(C)c3ccc(-c4ccc5c(c4)CCC5=O)cc3CC[C@@H]12 |
| 143 to 144 | CC(F)(F)c1cccc(C[C@H]2NC(=O)O[C@H]2c2ccc(F)cc2)c1 (racemic) |
| 119 to 120 | CCCCCCc1cc2c(cc1C(=O)Oc1ccc(C(=O)O)cn1)CCCCC2(C)C |
| 248 to 251 | CCOC(=O)C1=C(NC(C)=O)Oc2cc(O)ccc2C1c1cnc2ccccc2c1 (stereo unspecified) |
| 97 to 110 | Cn1c(=O)[nH]c(=O)n(-c2cc(Oc3ncc(C(F)(F)F)cc3Cl)ccc2Br)c1=O |
| 164 to 165 | Cn1c(CC(=O)O)ccc1C(=O)c1ccc(F)cc1 |
| 190 | CCOC(=O)c1cn(C)c2nc3cc(N4CCNC(Cc5ccccc5)C4)c(F)cc3cc2c1=O (racemic) |
| 167 to 168 | O=C(Nc1ccc(C(F)(F)F)cc1)C(Cl)=NNc1ccc(Cl)cc1 |
| 51.5 | CN1C(=O)[C@@H](N)[C@@H]1c1ccccc1 (relative stereo) |

The next lines start with the compound.

| SMILES | melting point [°C] |
| --- | --- |
| Cc1nc(-c2cnc3[nH]cc(C(=O)N[C@@H](C(=O)N4CC(C#N)C4)C4CC4)c3n2)cn1-c1ccccc1 | 175 to 179 |
| CC(O)C1(c2cccc(Cl)c2)CCN(C)CC1 (stereo unspecified) | 125 to 126 |
| O=C1c2ccccc2C(=O)c2c(NCC(O)CCl)ccc(NCC(O)CCl)c21 (stereo unspecified) | 167 to 169 |
| O=C1N=c2ccccc2=N1 | 138 to 140 |
| CCCCCCCCCCN1C(=O)C2C3CCC(O3)C2C1=O (stereo unspecified) | 30 to 31 |
| N#CC(c1ccccc1)(c1ccccc1)[C@H]1CCCN(CCc2ccc(CO)cc2)C1 | 110 to 114 |
| CC(=O)NC[C@H]1CN(c2cc(F)c3c(c2)CCCCC3=O)C(=O)O1 | 151 to 152 |
| NC(=O)c1cccc(OCCCCCCCc2ccsc2)c1 | 97 to 100 |
| COc1ccc(-c2nc(C)c(NC(=O)c3nnn[nH]3)s2)cc1 | 205 to 207 |
| Cc1cc(-c2cc3c(OC[C@@H](O)CN4CCC(c5ccc6ccccc6c5)CC4)cccc3o2)nn1C | 155 to 157 |
| CCOCc1cncc(-c2ccc3c(c2)nc(N)c2nc(COCC)n(CC(C)(C)O)c23)c1 | 156 |
| CCCSc1ccc2cc[nH]c2c1 | 54 to 55 |
| COc1cccc2c1CCNCC2 | 44.3 to 45 |
| CC(=O)OC1COC(n2c(Br)nc3cc(Cl)c(Cl)cc32)C(OC(C)=O)C1OC(C)=O (stereo unspecified) | 100 to 110 |
| COc1ncc(C=O)cc1Cl | 152 |
| OCC1=CCc2cc3ccccc3cc21 | 115 to 116 |
| Cc1cc(C)c2nc(C3CC3)n(Cc3ccc(C4(C(=O)O)CCCCC4)s3)c2n1 | 175 to 176 |
| c1ccc(Cc2nc3cnc4ccccc4c3s2)cc1 | 111 to 113 |
| CNS(=O)(=O)c1ccccc1Nc1nc(Nc2ccc3c(c2)CNC(=O)CCN3)ncc1Cl | 197 to 198 |
| Cn1nc(C(F)F)c(CS(=O)(=O)C2=NOC(C)(C)C2)c1Cl | 78 to 79 |
| CC1(C)OCC(CBr)(CBr)CO1 | 56 to 58 |
